Counter-ions that a name gives are not always drawn. Like-named read-outs stand apart in the source and are kept apart here.
Columns and labels:
Escherichia coli 9 911 = assay: In vitro antibacterial activity, dilution method in liquid medium; assay type: cell-based; conditions: 37°, expressed as base, read-out: minimal inhibiting concentration (MIC)
Method: (§1) The antibacterial activity has been measured in vitro by the dilution method in liquid medium. A series of tubes is prepared in which is distributed the same quantity of nutritive medium. Increasing quantities of the antibiotic under study are distributed, then each tube is innoculated with a bacterial strain as indicated in the table. After a 18, 24 or 48 hour incubation in a 37° oven, inhibition of the bacterial growth is appraised by transillumination which determines the minimal inhibiting concentration (MIC) of the products expressed as μg/ml of base in the table. In the following table, the product of Example 2 is identified as Product A.

[1] = tested on: Salmonella typhimurium 1 374; assay: as above; assay type: cell-based; conditions: Salmonella enterica, 37°, expressed as base, read-out: minimal inhibiting concentration (MIC)
Method: as §1

[2] = tested on: Staphylococcus aureus 40 511; assay: as above; assay type: cell-based; conditions: 37°, expressed as base, read-out: minimal inhibiting concentration (MIC)
Method: as §1

[3] = tested on: Enterobacter aerogenes Co11; assay: as above; assay type: cell-based; conditions: Klebsiella aerogenes, 37°, expressed as base, read-out: minimal inhibiting concentration (MIC)
Method: as §1

[4] = tested on: Staphylococcus aureus 40 821; assay: as above; assay type: cell-based; conditions: 37°, expressed as base, read-out: minimal inhibiting concentration (MIC)
Method: as §1

[5] = tested on: Serratia marcesens CoB 35; assay: as above; assay type: cell-based; conditions: 37°, expressed as base, read-out: minimal inhibiting concentration (MIC)
Method: as §1

[6] = tested on: Salmonella typhimurium 420; assay: as above; assay type: cell-based; conditions: Salmonella enterica, 37°, expressed as base, read-out: minimal inhibiting concentration (MIC)
Method: as §1

[7] = tested on: Enterobacter aerogenes Co86; assay: as above; assay type: cell-based; conditions: Klebsiella aerogenes, 37°, expressed as base, read-out: minimal inhibiting concentration (MIC)
Method: as §1

Salmonella anatum 23 348 = assay: as above; assay type: cell-based; conditions: Salmonella enterica, 23348, 37°, expressed as base, read-out: minimal inhibiting concentration (MIC)
Method: as §1

[8] = tested on: Staphylococcus aureus 40 481; assay: as above; assay type: cell-based; conditions: 37°, expressed as base, read-out: minimal inhibiting concentration (MIC)
Method: as §1

[9] = tested on: Staphylococcus aureus 38 691; assay: as above; assay type: cell-based; conditions: 37°, expressed as base, read-out: minimal inhibiting concentration (MIC)
Method: as §1

Escherichia coli 156 = assay: as above; assay type: cell-based; conditions: 37°, expressed as base, read-out: minimal inhibiting concentration (MIC)
Method: as §1

[10] = tested on: Streptococcus faecalis 99 F 74; assay: as above; assay type: cell-based; conditions: Enterococcus faecalis, 99F74; 18 H incubation, 37°, expressed as base; read-out: minimal inhibiting concentration (MIC)
Method: as §1

Escherichia coli 9 965 = assay: as above; assay type: cell-based; conditions: 37°, expressed as base, read-out: minimal inhibiting concentration (MIC)
Method: as §1

[11] = tested on: Klebsiella Pneumonia No. 52145; assay: In vivo antibacterial activity on experimental Klebsiella Pneumonia infection in mice; conditions: subcutaneous, 1, 5 and 24 hours after infection, 10 mice
Method: The antibacterial activity has been measured in vivo on an experimental Klebsiella Pneumonia infection.
40 male mice with a medium weight of 21 grams were divided in 4 series of 10 mice. An intraperitoneal infection with 0.5 ml of a Klebsiella Pneumonia No. 52145 culture in nutritive medium diluted to one thousandth with sterile water is conducted. Treatment is performed by a subcutaneous administration of the product of Example 2, (Product A) three times, (1 hour, 5 hours and 24 hours) after infection. The mortality rate at different times as indicated in the table was measured as well as the number of mice surviving after 8 days.

[12] = total dose 0,03 mg (as free base)

Work on CNC1CC(C)OC(OC2C(N)CC(N)C(OC3OC(CN)C(O)CC3N)C2O)C1O [Product A, 4-0-[2',6'-diamino 2', 3', 6'-tridesoxy α, D-ribohexopyranosyl] 6-0-[3"-methylamino 3",4",6"-tridesoxy α, D-xylohexopyranosyl] 2-desoxy streptamine sulfate] yielded an MIC (Escherichia coli 9 911; 9911, 18 H incubation) of 0.6 µg/mL, an MIC (Escherichia coli 9 911; 9911, 24 H incubation) of 0.6 µg/mL and an MIC (Escherichia coli 9 911; 9911, 48 H incubation) of 0.2 µg/mL. For the same compound, the MIC ([1]; 18 H incubation) was 1 µg/mL, the MIC ([1]; 24 H incubation) was 5 µg/mL and the MIC ([1]; 48 H incubation) was 10 µg/mL. It also gave an MIC ([2]; 40511, 18 H incubation) of 0.2 µg/mL, an MIC ([2]; 40511, 24 H incubation) of 0.6 µg/mL and an MIC ([2]; 40511, 48 H incubation) of 1 µg/mL. For the same compound, the MIC ([3]; 18 H incubation) was 0.4 µg/mL, the MIC ([3]; 24 H incubation) was 0.4 µg/mL and the MIC ([3]; 48 H incubation) was 1 µg/mL. The MIC ([4]; 40821, 18 H incubation) was 0.1 µg/mL, the MIC ([4]; 40821, 24 H incubation) was 0.1 µg/mL and the MIC ([4]; 40821, 48 H incubation) was 0.1 µg/mL. For the same compound, the MIC ([5]; COB35, 18 H incubation) was 10 µg/mL, the MIC ([5]; COB35, 24 H incubation) was 40 µg/mL and the MIC ([5]; COB35, 48 H incubation) was 40 µg/mL. For the same compound, the MIC ([6]; 18 H incubation) was 2 µg/mL, the MIC ([6]; 24 H incubation) was 5 µg/mL and the MIC ([6]; 48 H incubation) was 20 µg/mL. For the same compound, the MIC ([7]; 18 H incubation) was 0.6 µg/mL, the MIC ([7]; 24 H incubation) was 0.6 µg/mL and the MIC ([7]; 48 H incubation) was 0.6 µg/mL. The MIC (Salmonella anatum 23 348; 18 H incubation) was 1 µg/mL, the MIC (Salmonella anatum 23 348; 24 H incubation) was 3 µg/mL and the MIC (Salmonella anatum 23 348; 48 H incubation) was 15 µg/mL. For the same compound, the MIC ([8]; 40481, 18 H incubation) was 0.1 µg/mL, the MIC ([8]; 40481, 24 H incubation) was 0.1 µg/mL and the MIC ([8]; 40481, 48 H incubation) was 0.2 µg/mL. For the same compound, the MIC ([9]; 38691, 24 H incubation) was 0.1 µg/mL, the MIC ([9]; 38691, 48 H incubation) was 0.1 µg/mL and the MIC (Escherichia coli 156; 18 H incubation) was 0.4 µg/mL. It also gave an MIC (Escherichia coli 156; 24 H incubation) of 0.6 µg/mL, an MIC (Escherichia coli 156; 48 H incubation) of 1 µg/mL and an MIC [10] greater than 20 µg/mL. The MIC (Escherichia coli 9 965; 9965, 18 H incubation) was 0.6 µg/mL, the MIC (Escherichia coli 9 965; 9965, 24 H incubation) was 1 µg/mL and the MIC (Escherichia coli 9 965; 9965, 48 H incubation) was 2 µg/mL. The “Mortality at 5 H” value [11, 12] was 1, the “Survived to the eighth day (number of mice)” value (from here on “Survived to the eighth day”) [11, 12] was 9 mice and the “Survived to the eighth day” value ([11]; total dose 0,05 mg (as free base)) was 10 mice. For the same compound, the “Survived to the eighth day” value ([11]; total dose 0,075 mg (as free base)) was 10 mice.

— patent publication US4031210A, “Antibiotic aminoglycosides, processes of preparation and pharmaceutical compositions” (Roussel-UCLAF, priority 1974, dated 1977)
